Data set [1] concerns HeLa cells. The data set can be described thus: Apoptosis, TUNEL assay. It counts as cell-based, human. The following applies: 50 and 100 μM, 24 h. How it is done:
(§1) The sensitive U87 and HeLa cell lines, selected according to the results of the IC50 values of the examined Cu(II) and Pt(II) complexes, were seeded at a seeding cell number of 5 × 10^4 cells on the 12 mm round cover slips placed in the 24-well plate and incubated at 37°C and 5% CO2 for 24 h. The following day, the Cu(dpq)Cl2, Cu(dtq)Cl2, Pt(dpq)Cl2 and Pt(dtq)Cl2 complexes were freshly prepared and added at a range of 50 and 100 μM to the cell monolayers. After a 24 h incubation time, the cell monolayers were fixed with 4% paraformaldehyde for 15 min at room temperature and, then, the terminal deoxynucleotidyl transferase (TdT)-mediated dUTP nick end labeling (TUNEL) method was applied to detect the DNA damage associated with apoptosis. A commercial assay kit, In Situ Cell Death Detection Kit (Roche, #11767291910), was used for this purpose in accordance to the manufacturer's instructions. The experiment was repeated twice with the tested cell lines, and images were recorded with using a Leica DMI 6000 fluorescence microscope with 40× magnification.

Data set [2] relates to U87 cells. Description: Apoptosis, TUNEL assay. The format is cell-based, human. The settings on record: U87, 50 and 100 μM, 24 h. As to the method: as §1
Data set [3] concerns U87 cells. Description: Matrigel invasion analysis. It counts as cell-based, human. The following applies: U87, 6.25 and 12.5 μM, 24 h, vs negative control. How it is done: The analysis was completed with U87 and HeLa cell lines to assess the metastatic potential of tumor cells using transwell inserts with an 8 μm pore size polycarbonate membrane (Corning Costar, Cambridge, MA, USA) coated with 1/5 of Matrigel (Beckton Dickinson, Bedford, MA, USA) and air-dried at room temperature. After seeding the U87 and HeLa cell lines (3 × 10^5cells/insert), the complex concentrations were selected as 6.25 or 12.5 μM and incubated at 37°C in a humidified incubator with 5% CO2 for 24 h. The cell monolayers in the transwell inserts were fixed with ice-cold methanol and stained with 0.05% crystal violet for the analysis. The invasion of the cells to the basolateral side of the inserts was investigated using a light microscope with 40× magnification.

In data set [4] the target is human serum albumin (HSA) (Homo sapiens, UniProt P02768). Description: UV titration with HSA. The following applies: binding to HSA, 310-340 K. As to the method:
The change in the electronic absorption spectrum of the complexes in the presence and the absence of CT-DNA was followed using an HP Agilent8453 Spectrophotometer. During the measurements, the concentration of the compounds was kept constant [Cu(tpbq)Cl2 = 3.0 × 10^−3 M; Cu(ttbq)Cl2 = 0.50 × 10^−3 M; Pt(tpbq)Cl2 = 3.0 × 10^−3 M; Pt(ttbq)Cl2 = 3.0 × 10^−3 M)], while the CT-DNA concentration was changed depending on the R (R=[DNA]/[complex]) value of 0 to 10. […] The optimal incubation time was determined as 30 min for Cu(ttbq)Cl2, 60 min for Pt(tpbq)Cl2, and 45 min for Cu(tpbq)Cl2 and Pt(ttbq)Cl2 at 37°C spectroscopically. […] The optimal incubation time for HSA binding titrations was determined as 30 min for Cu(ttbq)Cl2 and Pt(ttbq)Cl2, and 60 min for Cu(tpbq) Cl2 and Pt(tpbq)Cl2 spectroscopically.[37]

Data set [5] concerns A172, LN229, U87, A549, Hela, PC-3, and MDA-231 cells. The data set can be described thus: ROS production, DCFDA assay, all used cell lines. It counts as cell-based, human. The following applies: all used cell lines; 6.25 to 100 μM, 24 h. How it is done:
(§2) The reactive oxygen species (ROS) formation on the selected cell lines upon exposure to the synthesized Cu(II) and Pt(II) complexes was investigated using the oxidation-sensitive dye, 2ʹ,7ʹ-dichlorofluorescein diacetate (DCFDA, #D6883 Sigma-Aldrich). The cell lines (A172, LN229, U87, HeLa, MDA-231, PC-3, A549, and CHO-K1) were seeded (6 × 10^3 cells/well) into the 96-well plates and incubated at 37°C and 5% CO2 for 24 h. After that, the Cu(II) and Pt(II) complexes, at a concentration range of 6.25 to 100 μM, were added to the cell monolayers. Hydrogen peroxide (H2O2), at concentrations from 50 to 500 μM, was utilized as a positive control. The following day, 5 μM of DCFDA in PBS was added to the cell monolayers and, then, the plate was incubated for 30–45 min. Consequently, the fluorescence intensity was measured with 485 nm excitation and 535 nm emission wavelengths using a microplate reader. The fluorescence values of each treatment were normalized to the negative control, including only growth medium without any treatment. The assay was repeated in triplicate.

Data set [6] deals with prostate PC3 cells. The data set can be described thus: ROS production, DCFDA assay. It counts as cell-based, human. The settings on record: 6.25 to 100 μM, 24 h. How it is done:
as §2

For data set [7], the system named is lung A549, cervix HeLa, and breast MD-A231 cells. The data set can be described thus: ROS production, DCFDA assay. It counts as cell-based, human. The following applies: MDA-231, 6.25 to 100 μM, 24 h, vs negative control. As to the method:
as §2

Data set [8] relates to HeLa cells. The data set can be described thus: In vitro comet assay. It counts as cell-based, human. The following applies: 25 and 50 μM, 24 h. How it is done:
(§3) Commet assay was performed with U87 and HeLa cell lines (4 × 10^4 cells/well) to detect DNA damage in the individual eukaryotic cells, where 25 or 50 μM Cu(II) or Pt(II) complexes were added to the cells and incubated for 24 h. Subsequently, the comet assay was performed as described before.[31] The DNA damage was evaluated by calculating the DNA tail percentage using the following equation: DNA tail % = 100× tailing DNA density/cell DNA density. The assay was repeated twice, and 50 individual cells were involved for each treatment.

Data set [9] deals with U87 cells. The data set can be described thus: In vitro comet assay. The format is cell-based, human. The settings on record: U87, 25 and 50 μM, 24 h. How it is done:
as §3

Consider four compounds from PMC10849753, “Antiproliferative activity of platinum(II) and copper(II) complexes containing novel biquinoxaline ligands” (Metallomics: Integrated Biometal Science, 2024).

human serum albumin (HSA), sequence (P02768 25-609): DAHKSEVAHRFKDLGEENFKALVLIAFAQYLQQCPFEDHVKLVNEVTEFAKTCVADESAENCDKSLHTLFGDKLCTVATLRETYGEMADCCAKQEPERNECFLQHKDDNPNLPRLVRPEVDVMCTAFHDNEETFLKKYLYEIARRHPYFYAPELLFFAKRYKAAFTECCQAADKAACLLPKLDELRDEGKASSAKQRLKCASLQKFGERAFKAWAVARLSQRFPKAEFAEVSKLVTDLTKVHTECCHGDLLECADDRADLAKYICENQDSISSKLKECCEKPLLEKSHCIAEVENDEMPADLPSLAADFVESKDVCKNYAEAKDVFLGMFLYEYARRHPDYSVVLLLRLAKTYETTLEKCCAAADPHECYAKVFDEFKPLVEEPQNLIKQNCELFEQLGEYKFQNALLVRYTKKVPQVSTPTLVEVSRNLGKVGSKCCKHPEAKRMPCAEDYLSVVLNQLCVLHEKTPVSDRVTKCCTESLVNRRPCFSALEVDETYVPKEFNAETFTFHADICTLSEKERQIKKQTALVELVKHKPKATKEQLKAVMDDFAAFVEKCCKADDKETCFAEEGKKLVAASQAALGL

Regarding `[Cl][Cu][Cl].c1ccc(-c2nc3ccc(-c4ccc5nc(-c6ccccn6)c(-c6ccccn6)nc5c4)cc3nc2-c2ccccn2)nc1` [Cu(tpbq)Cl2], the “apoptosis (DNA fragmentation, TUNEL)” value in data set [1] is listed as “none of which induced any apoptosis”. The “apoptosis (DNA fragmentation, TUNEL)” value in [2] was “none of which induced any apoptosis”. For the same compound, the anti-invasive effect entry in data set [3] was “did not have any anti-invasive effect”. In data set [4], the “ΔG^o (standard Gibbs free energy change)” value was -19800 J, the “ΔH^o (standard enthalpy change)” value turned out to be 120800 J and the “ΔS^o (standard entropy change)” value is 458.15 J/K.

Turning to `[Cl][Cu][Cl].c1csc(-c2nc3ccc(-c4ccc5nc(-c6cccs6)c(-c6cccs6)nc5c4)cc3nc2-c2cccs2)c1` [Cu(ttbq)Cl2], the “apoptosis (DNA fragmentation, TUNEL)” value was “none of which induced any apoptosis” in data set [1] and “apoptotic potential of the U87 cells was observed” in data set [2]. In addition, the ROS formation entry in [5] was “highest increase in the level of ROS formation”; in data set [6] it was “no formation”. For the same compound, the “increase of ROS production” value in data set [7] is listed as roughly 2 fold. In addition, the “genotoxicity (DNA damage, comet)” value is recorded as “only genotoxic on the Hela cells at a high concentration (50 μM)” in data set [8] and “caused DNA damage on the U87 cells at both concentrations” in [9]. The “ΔG^o (standard Gibbs free energy change)” value in data set [4] was -27900 J. In addition, the “ΔH^o (standard enthalpy change)” value in [4] stood at 53100 J. Besides, the “ΔS^o (standard entropy change)” value in [4] was found to be 258.51 J/K.

As for `[Cl][Pt][Cl].c1ccc(-c2nc3ccc(-c4ccc5nc(-c6ccccn6)c(-c6ccccn6)nc5c4)cc3nc2-c2ccccn2)nc1` [Pt(tpbq)Cl2], in data set [1], the “apoptosis (DNA fragmentation, TUNEL)” value is “none of which induced any apoptosis”. For the same compound, the “apoptosis (DNA fragmentation, TUNEL)” value in [2] was “apoptotic potential of the U87 cells was observed”. Besides, the ROS formation result in data set [5] is given as “did not induce any ROS formation”. In data set [4], the “ΔG^o (standard Gibbs free energy change)” value was -31400 J, the “ΔH^o (standard enthalpy change)” value amounted to 22900 J and the “ΔS^o (standard entropy change)” value is 174.97 J/K.

For `[Cl][Pt][Cl].c1csc(-c2nc3ccc(-c4ccc5nc(-c6cccs6)c(-c6cccs6)nc5c4)cc3nc2-c2cccs2)c1` [Pt(ttbq)Cl2], the “apoptosis (DNA fragmentation, TUNEL)” value in [1] was “apoptosis on HeLa cells was only observed”. Moreover, the “apoptosis (DNA fragmentation, TUNEL)” value in [2] is given as “none of which induced any apoptosis”. Besides, in data set [6], the ROS formation entry is on record as “no formation”. Also, the “increase of ROS production” value in data set [7] was roughly 2 fold. Also, the “genotoxicity (DNA damage, comet)” value in data set [9] was “caused DNA damage on the U87 cells at both concentrations”. Besides, in [4], the “ΔG^o (standard Gibbs free energy change)” value is -28600 J, the “ΔH^o (standard enthalpy change)” value stood at 33200 J and the “ΔS^o (standard entropy change)” value is recorded as 198.00 J/K.
